Experiment [1] has as its system SW1353 cells. The experiment can be described thus: Determination of TGF-β content (ELISA) of SW1353 cell cultures treated with postbiotic extract and/or nutritional component. The conditions noted are these: 24 hours. In kind it is cell-based, Human. As for the experimental part:
(§1) • 2. Human primary central chondrosarcoma cell line SW1353 was purchased from the Bioresource Collection and Research Center of the Food Industry Research and Development Institute (BCRC of FIRDI, Taiwan). SW1353 cells were grown in a 10-cm Petri dish containing Dulbecco's Modified Eagle's Medium (DMEM) (Thermo Fisher Scientific) supplemented with 10% fetal bovine serum (FBS). The SW1353 cells were cultivated in an incubator with culture conditions set at 37° C. and 5% CO2. Medium change was performed every two to three days. Cell passage was performed when the cultured cells reached 80-90% of confluence. • 3.
The TGF-β content was determined using an enzyme-linked immunosorbent assay (ELISA) kit (Cat. No. 559119, BD Biosciences) in accordance with the manufacturer's instructions.
SW1353 cells were divided into 25 groups, including one control group, twelve comparative groups (i.e., comparative groups L-1 to L-6 and B-1 to B-6), and twelve experimental groups (i.e., experimental groups L-1 to L-6 and B-1 to B-6). Each group of the SW1353 cells was incubated in a respective well of a 96-well culture plate containing 200 μL of DMEM at 1×10^4 cells/well, followed by cultivation in an incubator (37° C., 5% CO2) for 24 hours. […] The cell culture of the control group received no treatment.
After cultivation in an incubator (37° C., 5% CO2) for 24 hours, the respective resultant cell culture was subjected to the determination of TGF-β content according to the method described in section 1 of “General Procedures”.
(§2) SW1353 cells were divided into 28 groups, including fourteen comparative groups (i.e., comparative groups 1L to 7L and […]) and fourteen experimental groups (i.e., experimental groups 1L to 7L and 1B to 7B). Each group of the SW1353 cells was incubated in a respective well of a 96-well culture plate containing 200 μL of DMEM at 1×10^4 cells/well, followed by cultivation in an incubator (37° C., 5% CO2) for 24 hours.
For orientation: An ELISA detects its analyte on a solid surface through an enzyme-linked reagent.

The test system of experiment [2] is SW1353 cells. As to the kind of experiment: Proliferation of SW1353 cells (MTT staining, OD570 converted to cell number). The conditions noted are these: 24 hours. In kind it is cell-based, Human. As for the experimental part:
as §1
SW1353 cells were divided into 3 groups, including one control group and two experimental groups (i.e., experimental groups L and B). Each group of the SW1353 cells was incubated in a respective well of a 96-well culture plate containing 200 μL of DMEM at 1×10^4 cells/well, followed by cultivation in an incubator (37° C., 5% CO2) for 24 hours. […] The cell culture of the control group received no treatment.
After cultivation in an incubator (37° C., 5% CO2) for 24 hours, the respective resultant cell culture was stained with 3-(4,5-Dimethylthiazol-2-yl)-2,5-diphenyltetrazolium bromide (MTT), followed by subjecting the stained cells to determination of absorbance at a wavelength of 570 nm by a spectrophotometer. The OD570 values obtained were subsequently converted to cell numbers based on a correlation curve previously prepared by plotting different known cell numbers of the SW1353 cells versus their OD570 values.
as §2
After cultivation in an incubator (37° C., 5% CO2) for 24 hours, the cell number of each group was determined according to the method described in section C of this example. The fold increase of viable cells was calculated using the following Equation (II): C=D/E (II) where C=fold increase of viable cells • D=cell number of respective experimental group or comparative group • E=cell number of corresponding comparative group 1L, 2L, 3L, 4L, 5L, 6L, or 7L

Setting [3] is: nutritional component only 50 mg/L.
Where [4] appears, read: nutritional component only 100 mg/L.
[5] abbreviates: nutritional component only 50 mg/L, this group is the reference of the ratio.
The mark [6] stands for this setting: nutritional component only 100 mg/L, relative to the same component at 50 mg/L.

With `N[C@H]1C(O)O[C@H](CO)[C@@H](O)[C@@H]1O` (stereo partly shown) [Glucosamine], the TGF-β content worked out at 17.1 pg/mL with SW1353 cells [1] (setting [3]) and 20.8 pg/mL in the experiment on SW1353 cells [1] (setting [4]). Also, the “Fold increase of viable cells” value in the experiment with SW1353 cells [2] (setting [5]) worked out at 1.0; in the experiment on SW1353 cells [2] (setting [6]) it was 1.1.

On to `O=C1O[C@H]([C@@H](O)CO)C(O)=C1O` [Vitamin C], for which the TGF-β content is 18.2 pg/mL in the experiment on SW1353 cells [1] (setting [3]) and 21.1 pg/mL with SW1353 cells [1] (setting [4]). Also, the “Fold increase of viable cells” value in the experiment with SW1353 cells [2] (setting [5]) and in the experiment on SW1353 cells [2] (setting [6]) was 1.0 throughout.

With Chondroitin, the TGF-β content with SW1353 cells [1] (setting [3]) turned out to be 38.3 pg/mL; in the experiment on SW1353 cells [1] (setting [4]), 44.2 pg/mL. Also, the “Fold increase of viable cells” value in the experiment with SW1353 cells [2] (setting [5]) turned out to be 1.0; with SW1353 cells [2] (setting [6]) it was 1.1.

Sodium hyaluronate: the TGF-β content with SW1353 cells [1] (setting [3]) is listed as 97.3 pg/mL; with SW1353 cells [1] (setting [4]) it was 102.2 pg/mL. Moreover, the figures for the “Fold increase of viable cells” value in the experiment on SW1353 cells [2] (setting [5]) and with SW1353 cells [2] (setting [6]) were 1.0 and 1.1, respectively.

The record behind these values is patent US11517596B2, “Method for alleviating arthritis with postbiotic extract” (CHAMBIO CO., LTD., priority 2020, dated 2022).
